# Laboratory results from ChEMBL document CHEMBL4184123, “Discovery of novel 2-substituted-4-phenoxypyridine derivatives as potential antitumor agents” (Bioorg Med Chem Lett, 2018).
# Tests used:
# A549 = assay: cells; conditions: Homo sapiens, A549, 72 h
# Description: Antiproliferative activity against human A549 cells after 72 hrs by MTT assay
# HT-29 = assay: cells; conditions: Homo sapiens, HT-29, 72 h
# NCI-H460 = assay: Antiproliferative activity against human H460 cells after 72 hrs by MTT assay; assay type: functional, cell-based; conditions: NCI-H460, 72 h
# U-87 MG = assay: Antiproliferative activity against human U87MG cells after 72 hrs by MTT assay; assay type: functional, cell-based, U-87MG ATCC
# [1] = molecular target: Hepatocyte growth factor receptor (Homo sapiens, UniProt P08581); assay: Inhibition of c-MET (unknown origin) using poly (Glu, Tyr) 4:1 as substrate after 30 mins in presence of ATP by HTRF assay
# [2] = molecular target: T1, Receptor-type tyrosine-protein kinase FLT3 (Homo sapiens, UniProt P36888); assay: Inhibition of FLT3 (unknown origin) using poly (Glu, Tyr) 4:1 as substrate after 30 mins in presence of ATP by HTRF assay
# T1 sequence (P36888 whole entry): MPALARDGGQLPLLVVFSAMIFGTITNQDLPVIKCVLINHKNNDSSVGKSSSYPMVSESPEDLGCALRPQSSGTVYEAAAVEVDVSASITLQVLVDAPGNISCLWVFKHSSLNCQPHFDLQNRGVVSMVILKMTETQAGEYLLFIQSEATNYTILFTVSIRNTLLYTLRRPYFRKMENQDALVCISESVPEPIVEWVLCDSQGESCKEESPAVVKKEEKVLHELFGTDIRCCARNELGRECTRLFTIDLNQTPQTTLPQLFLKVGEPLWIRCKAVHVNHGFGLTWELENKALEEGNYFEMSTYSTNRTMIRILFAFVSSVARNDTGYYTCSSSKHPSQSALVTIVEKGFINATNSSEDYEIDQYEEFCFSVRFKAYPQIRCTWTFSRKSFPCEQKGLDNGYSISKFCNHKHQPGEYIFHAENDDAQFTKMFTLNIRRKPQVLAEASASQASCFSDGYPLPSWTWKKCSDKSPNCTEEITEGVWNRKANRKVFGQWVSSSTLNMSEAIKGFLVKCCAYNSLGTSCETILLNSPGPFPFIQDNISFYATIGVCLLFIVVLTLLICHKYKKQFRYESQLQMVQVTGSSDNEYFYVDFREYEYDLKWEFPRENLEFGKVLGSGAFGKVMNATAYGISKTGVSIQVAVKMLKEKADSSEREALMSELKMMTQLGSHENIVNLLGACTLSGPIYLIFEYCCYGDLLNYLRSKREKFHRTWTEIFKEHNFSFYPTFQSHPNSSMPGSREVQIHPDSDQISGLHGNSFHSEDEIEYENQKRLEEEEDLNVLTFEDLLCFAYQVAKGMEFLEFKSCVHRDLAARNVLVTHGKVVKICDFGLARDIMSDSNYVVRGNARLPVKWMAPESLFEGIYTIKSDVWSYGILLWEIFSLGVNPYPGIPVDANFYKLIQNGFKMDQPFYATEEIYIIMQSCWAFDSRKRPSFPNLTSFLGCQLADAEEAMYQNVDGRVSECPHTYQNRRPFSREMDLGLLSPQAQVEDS
# [3] = molecular target: Vascular endothelial growth factor receptor 3 (Homo sapiens, UniProt P35916); assay: Inhibition of VEGFR3 (unknown origin) using poly (Glu, Tyr) 4:1 as substrate after 30 mins in presence of ATP by HTRF assay
# Vascular endothelial growth factor receptor 3, sequence (P35916 whole entry): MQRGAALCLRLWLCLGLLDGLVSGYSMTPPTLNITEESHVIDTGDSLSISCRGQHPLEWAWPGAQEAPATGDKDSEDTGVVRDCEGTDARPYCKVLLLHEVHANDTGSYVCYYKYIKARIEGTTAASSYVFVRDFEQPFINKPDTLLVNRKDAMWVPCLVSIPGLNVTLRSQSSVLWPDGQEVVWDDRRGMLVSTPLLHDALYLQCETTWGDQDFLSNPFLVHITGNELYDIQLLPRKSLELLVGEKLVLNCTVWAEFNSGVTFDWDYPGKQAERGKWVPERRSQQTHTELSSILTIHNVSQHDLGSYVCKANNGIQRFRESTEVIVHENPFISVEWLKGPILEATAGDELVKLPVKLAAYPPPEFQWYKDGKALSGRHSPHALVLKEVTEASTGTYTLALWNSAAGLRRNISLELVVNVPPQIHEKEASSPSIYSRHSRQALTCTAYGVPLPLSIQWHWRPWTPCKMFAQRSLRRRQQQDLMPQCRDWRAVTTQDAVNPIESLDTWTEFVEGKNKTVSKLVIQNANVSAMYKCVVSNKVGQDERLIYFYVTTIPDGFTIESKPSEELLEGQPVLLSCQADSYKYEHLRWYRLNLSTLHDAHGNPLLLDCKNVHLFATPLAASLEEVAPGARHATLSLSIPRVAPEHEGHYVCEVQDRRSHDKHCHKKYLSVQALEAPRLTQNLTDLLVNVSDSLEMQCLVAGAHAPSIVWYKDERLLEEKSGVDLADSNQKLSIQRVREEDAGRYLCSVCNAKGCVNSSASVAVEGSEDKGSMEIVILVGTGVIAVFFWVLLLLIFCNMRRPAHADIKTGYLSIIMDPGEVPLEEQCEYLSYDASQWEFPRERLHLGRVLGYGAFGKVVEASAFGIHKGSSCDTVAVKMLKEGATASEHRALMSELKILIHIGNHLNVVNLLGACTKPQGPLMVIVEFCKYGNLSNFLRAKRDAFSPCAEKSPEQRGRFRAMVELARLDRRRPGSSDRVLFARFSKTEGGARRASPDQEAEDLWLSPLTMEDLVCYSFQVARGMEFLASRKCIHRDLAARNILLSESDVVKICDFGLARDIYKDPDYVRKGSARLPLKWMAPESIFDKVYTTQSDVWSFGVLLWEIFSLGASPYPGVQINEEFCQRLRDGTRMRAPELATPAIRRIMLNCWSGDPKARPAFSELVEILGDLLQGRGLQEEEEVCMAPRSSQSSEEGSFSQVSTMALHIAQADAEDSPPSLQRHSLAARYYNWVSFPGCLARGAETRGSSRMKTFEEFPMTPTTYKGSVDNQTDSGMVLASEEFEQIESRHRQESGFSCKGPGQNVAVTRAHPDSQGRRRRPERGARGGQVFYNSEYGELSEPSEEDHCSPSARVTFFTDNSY
# [4] = molecular target: ALK tyrosine kinase receptor (Homo sapiens, UniProt Q9UM73); assay: Inhibition of ALK (unknown origin) using poly (Glu, Tyr) 4:1 as substrate after 30 mins in presence of ATP by HTRF assay
# [5] = molecular target: Vascular endothelial growth factor receptor 2 (Homo sapiens, UniProt P35968); assay: Inhibition of VEGFR2 (unknown origin) using poly (Glu, Tyr) 4:1 as substrate after 30 mins in presence of ATP by HTRF assay
# Vascular endothelial growth factor receptor 2, sequence (P35968 whole entry): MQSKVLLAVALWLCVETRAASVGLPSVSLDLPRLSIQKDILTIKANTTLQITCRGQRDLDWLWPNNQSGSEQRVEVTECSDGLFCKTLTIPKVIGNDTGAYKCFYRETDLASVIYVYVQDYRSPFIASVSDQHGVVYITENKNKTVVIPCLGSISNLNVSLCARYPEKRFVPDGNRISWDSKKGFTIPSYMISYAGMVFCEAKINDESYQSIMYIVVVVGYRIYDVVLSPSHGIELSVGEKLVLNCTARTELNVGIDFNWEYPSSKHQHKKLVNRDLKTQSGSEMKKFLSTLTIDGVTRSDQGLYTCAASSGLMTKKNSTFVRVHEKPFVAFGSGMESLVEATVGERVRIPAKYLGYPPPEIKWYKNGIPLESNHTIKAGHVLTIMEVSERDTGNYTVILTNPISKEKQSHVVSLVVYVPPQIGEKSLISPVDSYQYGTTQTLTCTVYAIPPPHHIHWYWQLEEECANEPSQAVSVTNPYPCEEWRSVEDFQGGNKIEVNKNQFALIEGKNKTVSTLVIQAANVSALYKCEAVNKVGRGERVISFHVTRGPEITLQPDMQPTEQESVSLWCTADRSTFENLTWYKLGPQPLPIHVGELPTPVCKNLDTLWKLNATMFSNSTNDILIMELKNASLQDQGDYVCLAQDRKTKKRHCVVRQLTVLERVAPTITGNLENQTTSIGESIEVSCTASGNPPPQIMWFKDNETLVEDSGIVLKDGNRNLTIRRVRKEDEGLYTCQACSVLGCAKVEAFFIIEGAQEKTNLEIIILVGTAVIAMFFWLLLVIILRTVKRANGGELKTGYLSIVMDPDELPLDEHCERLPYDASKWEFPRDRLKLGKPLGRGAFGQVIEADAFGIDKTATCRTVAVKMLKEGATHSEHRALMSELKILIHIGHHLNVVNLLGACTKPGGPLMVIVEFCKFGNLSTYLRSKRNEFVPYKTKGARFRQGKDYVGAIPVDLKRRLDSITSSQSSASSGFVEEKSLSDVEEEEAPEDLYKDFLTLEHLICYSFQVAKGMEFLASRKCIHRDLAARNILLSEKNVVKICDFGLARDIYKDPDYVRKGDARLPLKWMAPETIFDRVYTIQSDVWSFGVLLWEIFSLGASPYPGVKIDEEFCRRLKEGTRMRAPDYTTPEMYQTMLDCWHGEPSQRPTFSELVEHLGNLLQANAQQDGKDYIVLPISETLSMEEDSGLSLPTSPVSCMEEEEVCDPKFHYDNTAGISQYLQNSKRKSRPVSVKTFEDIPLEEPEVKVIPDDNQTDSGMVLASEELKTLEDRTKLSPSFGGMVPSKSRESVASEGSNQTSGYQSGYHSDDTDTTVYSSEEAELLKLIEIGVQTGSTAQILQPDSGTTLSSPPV
# [6] = molecular target: Platelet-derived growth factor receptor beta (Homo sapiens, UniProt P09619); assay: Inhibition of PDGFRbeta (unknown origin) using poly (Glu, Tyr) 4:1 as substrate after 30 mins in presence of ATP by HTRF assay
# [7] = molecular target: Mast/stem cell growth factor receptor Kit (Homo sapiens, UniProt P10721); assay: Inhibition of c-KIT (unknown origin) using poly (Glu, Tyr) 4:1 as substrate after 30 mins in presence of ATP by HTRF assay
# Mast/stem cell growth factor receptor Kit, sequence (P10721 whole entry): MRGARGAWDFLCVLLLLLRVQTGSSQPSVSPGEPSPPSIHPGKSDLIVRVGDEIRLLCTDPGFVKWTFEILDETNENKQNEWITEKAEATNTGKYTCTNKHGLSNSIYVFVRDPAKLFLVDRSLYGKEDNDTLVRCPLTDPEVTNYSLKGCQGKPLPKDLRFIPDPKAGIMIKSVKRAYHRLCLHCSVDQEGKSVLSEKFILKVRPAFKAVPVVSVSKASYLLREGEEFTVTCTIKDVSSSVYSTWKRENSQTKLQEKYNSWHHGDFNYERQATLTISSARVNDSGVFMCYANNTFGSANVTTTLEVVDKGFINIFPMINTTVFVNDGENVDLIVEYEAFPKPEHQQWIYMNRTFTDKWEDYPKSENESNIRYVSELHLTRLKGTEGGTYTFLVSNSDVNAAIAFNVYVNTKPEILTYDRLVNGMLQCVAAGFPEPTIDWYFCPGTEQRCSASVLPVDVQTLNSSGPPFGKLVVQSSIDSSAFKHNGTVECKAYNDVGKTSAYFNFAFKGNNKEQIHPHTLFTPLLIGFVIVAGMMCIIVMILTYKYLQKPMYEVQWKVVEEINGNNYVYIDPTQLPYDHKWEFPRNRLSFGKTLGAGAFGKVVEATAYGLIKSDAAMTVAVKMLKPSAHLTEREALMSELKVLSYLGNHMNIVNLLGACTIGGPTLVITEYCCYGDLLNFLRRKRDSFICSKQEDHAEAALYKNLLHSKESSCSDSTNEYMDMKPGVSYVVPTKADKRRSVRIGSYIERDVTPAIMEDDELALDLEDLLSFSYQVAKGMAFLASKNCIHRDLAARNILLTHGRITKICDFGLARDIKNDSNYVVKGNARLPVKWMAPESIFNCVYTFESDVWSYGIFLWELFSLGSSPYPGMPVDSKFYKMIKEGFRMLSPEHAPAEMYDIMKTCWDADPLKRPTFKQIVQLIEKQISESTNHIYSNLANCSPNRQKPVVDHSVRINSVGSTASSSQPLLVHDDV
# [8] = molecular target: Platelet-derived growth factor receptor alpha (Homo sapiens, UniProt P16234); assay: Inhibition of PDGFRalpha (unknown origin) using poly (Glu, Tyr) 4:1 as substrate after 30 mins in presence of ATP by HTRF assay
# Platelet-derived growth factor receptor alpha, sequence (P16234 whole entry): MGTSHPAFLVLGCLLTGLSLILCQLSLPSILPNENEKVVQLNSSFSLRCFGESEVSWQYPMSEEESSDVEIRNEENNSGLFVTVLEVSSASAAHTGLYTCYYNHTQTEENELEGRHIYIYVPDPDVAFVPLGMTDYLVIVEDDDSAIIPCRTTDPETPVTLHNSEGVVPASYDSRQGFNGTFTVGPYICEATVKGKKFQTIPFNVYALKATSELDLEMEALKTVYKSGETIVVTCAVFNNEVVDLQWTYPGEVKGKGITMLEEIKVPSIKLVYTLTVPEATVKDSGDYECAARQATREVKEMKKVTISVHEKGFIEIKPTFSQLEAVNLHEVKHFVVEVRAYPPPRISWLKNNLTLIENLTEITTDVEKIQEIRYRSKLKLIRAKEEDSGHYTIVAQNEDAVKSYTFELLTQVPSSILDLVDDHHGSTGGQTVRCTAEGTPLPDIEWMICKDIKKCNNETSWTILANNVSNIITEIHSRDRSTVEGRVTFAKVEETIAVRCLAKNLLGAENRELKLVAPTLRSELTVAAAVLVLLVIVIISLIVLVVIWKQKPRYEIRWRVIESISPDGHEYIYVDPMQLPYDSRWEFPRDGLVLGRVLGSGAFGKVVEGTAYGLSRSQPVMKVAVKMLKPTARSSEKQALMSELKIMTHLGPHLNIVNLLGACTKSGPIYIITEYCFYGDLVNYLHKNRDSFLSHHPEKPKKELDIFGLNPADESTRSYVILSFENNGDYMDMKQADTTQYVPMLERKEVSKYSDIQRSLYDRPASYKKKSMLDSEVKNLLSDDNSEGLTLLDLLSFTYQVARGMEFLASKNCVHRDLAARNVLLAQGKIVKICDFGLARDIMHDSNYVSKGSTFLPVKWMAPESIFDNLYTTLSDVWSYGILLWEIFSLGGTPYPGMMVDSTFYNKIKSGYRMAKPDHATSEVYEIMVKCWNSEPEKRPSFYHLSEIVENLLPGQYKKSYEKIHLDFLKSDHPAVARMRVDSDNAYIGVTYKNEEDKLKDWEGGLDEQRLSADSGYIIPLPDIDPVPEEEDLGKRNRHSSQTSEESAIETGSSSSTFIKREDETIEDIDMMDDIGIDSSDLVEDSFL
# [9] = molecular target: Epidermal growth factor receptor (Homo sapiens, UniProt P00533); assay: Inhibition of EGFR (unknown origin) using poly (Glu, Tyr) 4:1 as substrate after 30 mins in presence of ATP by HTRF assay
Structure (SMILES),IC50 (A549) [nM],IC50 (HT-29) [nM],IC50 (NCI-H460) [nM],IC50 (U-87 MG) [µM],also measured
CCNC(=O)c1cc(Oc2ccc(NC(=O)c3cc4cccnc4n(-c4ccc(Br)cc4)c3=O)cc2)ccn1,910,1160,,,
CCNC(=O)c1cc(Oc2ccc(NC(=O)c3cc4cccnc4n(-c4ccc(C(F)(F)F)cc4Cl)c3=O)cc2)ccn1,3290,4770,,,
CNC(=O)c1cc(Oc2ccc(NC(=O)c3cc4cccnc4n(-c4ccc(Br)cc4)c3=O)cc2)ccn1,1050,1180,3710,15,
CNC(=O)c1cc(Oc2ccc(NC(=O)c3cc4cccnc4n(-c4ccc(C(F)(F)F)cc4Cl)c3=O)cc2)ccn1,2090,3190,2110,19.8,
CCNC(=O)c1cc(Oc2ccc(NC(=O)c3cc4cccnc4n(-c4ccc(F)cc4)c3=O)cc2)ccn1,120,190,220,1.13,
CCNC(=O)c1cc(Oc2ccc(NC(=O)c3cc4cccnc4n(-c4ccc(Br)cc4F)c3=O)cc2)ccn1,1820,2070,1790,10.3,
CNC(=O)c1cc(Oc2ccc(NC(=O)c3cc4cccnc4n(-c4ccc(Cl)cc4)c3=O)cc2)ccn1,370,390,,,
CCCNC(=O)c1cc(Oc2ccc(NC(=O)c3cc4cccnc4n(-c4ccc(C(F)(F)F)cc4Cl)c3=O)cc2)ccn1,1250,1960,3170,10.9,
CNC(=O)c1cc(Oc2ccc(NC(=O)c3cc4cccnc4n(-c4ccc(Br)cc4F)c3=O)cc2)ccn1,1420,1950,,,
CCNC(=O)c1cc(Oc2ccc(NC(=O)c3cc4cccnc4n(-c4ccc(OC)cc4)c3=O)cc2)ccn1,2010,3350,1720,7.21,
CCNC(=O)c1cc(Oc2ccc(NC(=O)c3cc4cccnc4n(-c4ccc(F)c(Cl)c4)c3=O)cc2)ccn1,1920,2600,,,
CCCNC(=O)c1cc(Oc2ccc(NC(=O)c3cc4cccnc4n(-c4ccc(OC)cc4)c3=O)cc2)ccn1,820,1560,1730,8.21,
CNC(=O)c1cc(Oc2ccc(NC(=O)c3cc4cccnc4n(-c4ccc(F)c(Cl)c4)c3=O)cc2)ccn1,1560,1810,,,
CCCNC(=O)c1cc(Oc2ccc(NC(=O)c3cc4cccnc4n(-c4ccc(F)c(Cl)c4)c3=O)cc2)ccn1,590,920,1600,3.59,
CCCNC(=O)c1cc(Oc2ccc(NC(=O)c3cc4cccnc4n(-c4ccc(Cl)cc4)c3=O)cc2)ccn1,120,390,,,
CNC(=O)c1cc(Oc2ccc(NC(=O)c3cc4cccnc4n(-c4ccccc4)c3=O)cc2)ccn1,200,250,320,1.82,
CNC(=O)c1cc(Oc2ccc(NC(=O)c3cc4cccnc4n(-c4ccc(F)cc4)c3=O)cc2)ccn1,110,160,210,2.91,
CNC(=O)c1cc(Oc2ccc(NC(=O)c3cc4cccnc4n(-c4ccc(OC)cc4)c3=O)cc2)ccn1,3110,920,,,
CCCNC(=O)c1cc(Oc2ccc(NC(=O)c3cc4cccnc4n(-c4ccccc4)c3=O)cc2)ccn1,95,98,110,1.51,
CCNC(=O)c1cc(Oc2ccc(NC(=O)c3cc4cccnc4n(-c4ccccc4)c3=O)cc2)ccn1,160,220,1120,2.65,
CCNC(=O)c1cc(Oc2ccc(NC(=O)c3cc4cccnc4n(-c4ccccc4F)c3=O)cc2)ccn1,490,260,1230,3.25,
CCCNC(=O)c1cc(Oc2ccc(NC(=O)c3cc4cccnc4n(-c4ccc(Br)cc4)c3=O)cc2)ccn1,150,530,620,5.19,
CCCNC(=O)c1cc(Oc2ccc(NC(=O)c3cc4cccnc4n(-c4ccccc4F)c3=O)cc2)ccn1,150,200,390,2.32,
CCNC(=O)c1cc(Oc2ccc(NC(=O)c3cc4cccnc4n(-c4ccc(Cl)cc4)c3=O)cc2)ccn1,250,330,,,
CNC(=O)c1cc(Oc2ccc(NC(=O)c3cc4cccnc4n(-c4ccccc4F)c3=O)cc2)ccn1,610,260,590,3.36,
CCCNC(=O)c1cc(Oc2ccc(NC(=O)c3cc4cccnc4n(-c4ccc(Br)cc4F)c3=O)cc2)ccn1,1310,2160,,,
CCCNC(=O)c1cc(Oc2ccc(NC(=O)c3cc4cccnc4n(-c4ccc(F)cc4)c3=O)cc2)ccn1,62,84,120,0.96,IC50 [1]: 2.61 nM; IC50 [2]: 2.18 nM; IC50 [3]: 23.6 nM; IC50 [4]: 186 nM; IC50 [5]: 291 nM; IC50 [6]: 482 nM; IC50 [7]: 529 nM; IC50 [8]: 691 nM; IC50 [9]: > 100 µM
